Laboratory results as given in US20060063759A1, “Tricyclic steroid hormone nuclear receptor modulators” (priority 2002, published 2006).

What was measured:
human MR = target: T1, human MR (Homo sapiens, UniProt P08235); experiment: Mineralocorticoid Receptor Binding Assay ([3H]-aldosterone); settings: [3H]-aldosterone binding, human MR expressed in Sf9 cells; read-out: MR Ki
T1 construct: The full length human MR gene is cloned from a human kidney or human brain cDNA library; His tag from the pAcHLT vector (own knowledge); made in house; host or cells: Sf9 insect cells (baculovirus, pAcHLT transfer vector)
T1 sequence (P08235 1-984): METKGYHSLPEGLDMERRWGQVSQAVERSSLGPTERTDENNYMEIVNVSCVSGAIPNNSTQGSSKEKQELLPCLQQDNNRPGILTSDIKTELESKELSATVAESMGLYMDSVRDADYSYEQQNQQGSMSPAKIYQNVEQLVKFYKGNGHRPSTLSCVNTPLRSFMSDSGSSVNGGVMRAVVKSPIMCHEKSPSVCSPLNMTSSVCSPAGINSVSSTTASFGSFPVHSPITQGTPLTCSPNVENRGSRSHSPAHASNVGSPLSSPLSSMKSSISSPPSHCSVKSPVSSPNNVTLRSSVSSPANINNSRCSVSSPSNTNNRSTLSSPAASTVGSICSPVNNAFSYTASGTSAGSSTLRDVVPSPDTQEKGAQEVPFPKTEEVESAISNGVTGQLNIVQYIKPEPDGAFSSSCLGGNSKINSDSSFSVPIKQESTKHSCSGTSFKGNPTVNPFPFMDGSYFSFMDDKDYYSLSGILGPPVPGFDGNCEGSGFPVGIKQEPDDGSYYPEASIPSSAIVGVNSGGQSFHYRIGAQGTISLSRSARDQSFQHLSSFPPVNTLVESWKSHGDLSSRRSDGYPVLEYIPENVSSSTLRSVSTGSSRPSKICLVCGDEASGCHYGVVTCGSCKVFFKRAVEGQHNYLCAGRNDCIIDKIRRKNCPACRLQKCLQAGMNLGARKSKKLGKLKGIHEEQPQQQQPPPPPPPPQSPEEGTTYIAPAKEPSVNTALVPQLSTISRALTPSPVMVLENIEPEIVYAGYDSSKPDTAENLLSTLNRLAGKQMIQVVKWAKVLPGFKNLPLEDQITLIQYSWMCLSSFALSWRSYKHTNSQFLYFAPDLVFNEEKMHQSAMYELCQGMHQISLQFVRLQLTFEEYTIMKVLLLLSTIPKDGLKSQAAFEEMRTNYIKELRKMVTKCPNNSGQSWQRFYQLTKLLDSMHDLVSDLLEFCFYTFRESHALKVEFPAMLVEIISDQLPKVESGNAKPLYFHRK
Method in brief: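 Lysate supernatant of Sf9 cells expressing full-length human MR (20-25 μg protein) was incubated with 0.5 nM [3H]-aldosterone and test compound in molybdate/Tris/phosphate/glycerol buffer, pH 7.5, ~16 h at 4 °C. Bound ligand was filtered and counted by scintillation; IC50 is the concentration halving [3H]-aldosterone binding.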

glucocorticoid receptor = target: T2, glucocorticoid receptor (Homo sapiens, UniProt P04150); experiment: Glucocorticoid Receptor Binding Assay ([3H]-dexamethasone, A549 cell extract); settings: [3H]-dexamethasone binding, read-out: GR Ki
T2 construct: containing 50-200 ug of A549 cell extract and 1.86 nM [^3H]-dexamethasone; host or cells: A549 human lung epithelial cells (sonicated cell extract)
T2 sequence (P04150 1-777): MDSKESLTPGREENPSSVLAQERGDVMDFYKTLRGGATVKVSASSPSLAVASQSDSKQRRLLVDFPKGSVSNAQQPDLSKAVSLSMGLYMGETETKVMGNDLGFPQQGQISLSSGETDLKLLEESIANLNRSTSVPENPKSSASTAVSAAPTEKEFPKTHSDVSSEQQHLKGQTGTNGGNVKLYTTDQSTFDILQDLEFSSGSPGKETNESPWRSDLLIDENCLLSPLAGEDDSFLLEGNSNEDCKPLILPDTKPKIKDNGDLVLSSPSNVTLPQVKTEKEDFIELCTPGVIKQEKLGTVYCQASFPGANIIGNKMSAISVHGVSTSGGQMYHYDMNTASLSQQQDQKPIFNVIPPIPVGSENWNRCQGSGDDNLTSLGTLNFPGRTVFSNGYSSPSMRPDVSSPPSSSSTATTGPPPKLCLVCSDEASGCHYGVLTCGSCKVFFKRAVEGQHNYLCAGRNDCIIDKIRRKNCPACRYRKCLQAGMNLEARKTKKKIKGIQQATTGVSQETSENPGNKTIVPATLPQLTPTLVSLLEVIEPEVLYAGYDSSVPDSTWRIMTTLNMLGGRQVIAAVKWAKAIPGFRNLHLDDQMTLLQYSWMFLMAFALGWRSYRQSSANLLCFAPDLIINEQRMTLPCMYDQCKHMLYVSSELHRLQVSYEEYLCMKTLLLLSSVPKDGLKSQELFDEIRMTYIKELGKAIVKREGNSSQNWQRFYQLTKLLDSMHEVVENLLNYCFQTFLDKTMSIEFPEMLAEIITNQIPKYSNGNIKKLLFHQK
Method in brief: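 A549 cell extract (50–200 ug) incubated with 1.86 nM [3H]-dexamethasone and test compound for 16 h at 4 °C in Tris-HCl pH 7.2 buffer with glycerol and molybdate. Unbound radioligand removed by dextran-coated charcoal, then supernatant bound counts measured by scintillation.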

Ki (human MR) | Ki (glucocorticoid receptor) | Structure (SMILES)
< 0.5 µM | < 1 µM | CS(=O)(=O)Nc1cccc(/C=C2\c3ccccc3C[S+]([O-])c3ccccc32)c1 (stereo not shown) [Example 263, N-[3-(10-Oxo-10,11-dihydro-10λ^4-thia-dibenzo[a,d]cyclohepten-5-ylidenemethyl)-phenyl]-methanesulfonamide]
< 1 µM | < 10 µM | CS(=O)(=O)Nc1cccc(/C=C2\c3ccccc3CS(=O)(=O)c3ccccc32)c1 [Example 264, N-[3-(10,10-Dioxo-10,11-dihydro-10λ^6-thia-dibenzo[a,d]cyclohepten-5-ylidenemethyl)-phenyl]-Methanesulfonamide]
< 0.5 µM | < 0.5 µM | CS(=O)(=O)Nc1cccc(/C=C2\c3ccccc3COc3ccccc32)c1 [Example 267, N-[3-(6H-Dibenzo[b,e]oxepine-11-ylidenemethyl)-phenyl]-methanesulfonamide]
< 0.5 µM | < 0.5 µM | CS(=O)(=O)Nc1cccc(/C=C2/c3ccccc3COc3ccccc32)c1 [Example 268, N-[3-(6H-Dibenzo[b,e]oxepin-11-ylidenemethyl)-phenyl]-methanesulfonamide]
< 0.5 µM | < 0.5 µM | COc1cccc2c1OCc1ccccc1/C2=C\c1cccc(NS(C)(=O)=O)c1 [Example 271, N-[3-(4-Methoxy-6H-dibenzo[b,e]oxepin-11-ylidenemethyl)-phenyl]-methanesulfonamide]
< 0.5 µM | < 0.5 µM | CS(=O)(=O)Nc1cccc(/C=C2/c3ccccc3OCc3c(Cl)cccc32)c1 [Example 274, N-[3-(7-Chloro-6H-dibenzo[b,e]oxepin-11-ylidenemethyl)-phenyl]-methanesulfonamide]
< 0.5 µM | < 10 µM | CS(=O)(=O)c1cccc(C=C2c3ccccc3CCc3ccccc32)c1 [Example 279, 5-(3-Methanesulfonyl-benzylidene)-10,11-dihydro-5H-dibenzo[a,d]cycloheptene]
< 0.5 µM | < 1 µM | N#CNc1cccc(C=C2c3ccccc3CCc3ccccc32)c1 [Example 280]
< 0.5 µM | < 10 µM | O=S(=O)(Nc1cccc(C=C2c3ccccc3CCc3ccccc32)c1)C(F)(F)F [Example 281]
< 0.5 µM | < 0.5 µM | Cc1ccccc1CC1c2ccccc2CCc2ccccc21 [Example 282]
< 0.5 µM | < 10 µM | FC(F)(F)c1ccccc1CC1c2ccccc2CCc2ccccc21 [Example 283]
< 0.5 µM | < 10 µM | Cc1ccc(CC2c3ccccc3CCc3ccccc32)cc1NS(C)(=O)=O [Example 286]
< 0.5 µM | < 0.5 µM | Nc1ccccc1CC1c2ccccc2CCc2ccccc21 [Example 287]
< 0.5 µM | < 1 µM | O=S(=O)(Nc1cccc(C=C2c3ccccc3CCc3cc(Cl)ccc32)c1)c1ccc(Cl)cc1 [Example 290]
< 0.5 µM | < 0.5 µM | O=S(=O)(Nc1cccc(C=C2c3ccccc3CCc3cc(Cl)ccc32)c1)c1ccc(F)cc1 [Example 291]
< 0.5 µM | < 0.5 µM | Cc1ccc(S(=O)(=O)Nc2cccc(C=C3c4ccccc4CCc4cc(Cl)ccc43)c2)cc1 [Example 292]
< 0.5 µM | < 0.5 µM | COc1ccc(S(=O)(=O)Nc2cccc(C=C3c4ccccc4CCc4cc(Cl)ccc43)c2)cc1 [Example 293]
< 0.5 µM | < 10 µM | O=S(=O)(Nc1cccc(C=C2c3ccccc3CCc3cc(Cl)ccc32)c1)c1ccc(Cl)c(Cl)c1 [Example 294]
< 0.5 µM | < 0.5 µM | O=S(=O)(Nc1cccc(C=C2c3ccccc3CCc3cc(Cl)ccc32)c1)c1cccs1 [Example 295]
< 0.5 µM | < 10 µM | Cn1cnc(S(=O)(=O)Nc2cccc(C=C3c4ccccc4CCc4cc(Cl)ccc43)c2)c1 [Example 296]
< 0.5 µM | < 10 µM | CC(=O)Nc1nc(C)c(S(=O)(=O)Nc2cccc(C=C3c4ccccc4CCc4cc(Cl)ccc43)c2)s1 [Example 297]

Ki (human MR) | Ki (glucocorticoid receptor) | Structure (SMILES)
< 0.5 µM | < 10 µM | O=C(CO)c1cccc(C=C2c3ccccc3CCc3cc(Cl)ccc32)c1 [Example 298]
< 0.5 µM | < 1 µM | COCC(=O)Nc1cccc(C=C2c3ccccc3CCc3cc(Cl)ccc32)c1 [Example 299]
< 0.5 µM | < 1 µM | O=C(CO)Nc1cccc(C=C2c3ccccc3CCc3cc(Cl)ccc32)c1 [Example 300]
< 0.5 µM | < 0.5 µM | Cc1ccc2c(c1)C(=Cc1cccc(NS(C)(=O)=O)c1)c1ccccc1CC2 [Example 301]
< 0.5 µM | < 0.5 µM | Cc1ccc2c(c1)CCc1ccccc1C2=Cc1cccc(NS(C)(=O)=O)c1 [Example 302]
< 0.5 µM | < 0.5 µM | Cc1cccc2c1CCc1ccccc1C2=Cc1cccc(NS(C)(=O)=O)c1 [Example 303]
< 0.5 µM | < 0.5 µM | Cc1cccc2c1C(=Cc1cccc(NS(C)(=O)=O)c1)c1ccccc1CC2 [Example 304]
< 0.5 µM | < 1 µM | Cc1ccc2c(c1)C(=Cc1ccc(NS(C)(=O)=O)cc1)c1ccccc1CC2 [Example 305]
< 0.5 µM | < 1 µM | CS(=O)(=O)Nc1cccc(/C=C2/c3ccccc3CCc3cc(-c4ccccc4)ccc32)c1 [Example 306]
< 0.5 µM | < 1 µM | Cc1cccc2c1CCc1ccccc1C2=Cc1ccc(NS(C)(=O)=O)cc1 [Example 307]
< 0.5 µM | < 10 µM | CS(=O)(=O)Nc1cccc(/C=C2\c3ccccc3CCc3cc(-c4ccccc4)ccc32)c1 [Example 308]
< 0.5 µM | < 1 µM | Cc1ccc2c(c1)CCc1ccccc1C2=Cc1ccc(NS(C)(=O)=O)cc1 [Example 309]
< 0.5 µM | < 1 µM | Cc1cccc2c1C(=Cc1ccc(NS(C)(=O)=O)cc1)c1ccccc1CC2 [Example 310]
< 0.5 µM | < 0.5 µM | Cc1cccc2c1CCc1ccccc1/C2=C/c1cccc(NS(C)(=O)=O)c1 [Example 311]
< 0.5 µM | < 0.5 µM | Cc1cccc2c1CCc1ccccc1/C2=C\c1cccc(NS(C)(=O)=O)c1 [Example 312]
< 0.5 µM | < 0.5 µM | Cc1cccc2c1/C(=C\c1cccc(NS(C)(=O)=O)c1)c1ccccc1CC2 [Example 314]
< 0.5 µM | < 10 µM | Cc1cccc2c1CCc1ccccc1/C2=C/c1ccc(NS(C)(=O)=O)cc1 [Example 315]
< 0.5 µM | < 0.5 µM | Cc1cccc2c1CCc1ccccc1/C2=C\c1ccc(NS(C)(=O)=O)cc1 [Example 316]
< 0.5 µM | < 10 µM | Cc1ccc2c(c1)CCc1ccccc1/C2=C/c1ccc(NS(C)(=O)=O)cc1 [Example 317]
< 0.5 µM | < 1 µM | Cc1ccc2c(c1)CCc1ccccc1/C2=C\c1ccc(NS(C)(=O)=O)cc1 [Example 318]
